One experiment deals with TCF4/β-catenin transcription (TOPFlash) in SW480 cells. The experiment in a line: Reporter gene assay (TOPFlash luciferase). It counts as cell-based. Conditions: Homo sapiens, SW480. Summed up:
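SW480 cells transiently co-transfected with TOPFlash and pRL-null (4:1 µg) using Superfect, then reseeded at 3×10^4 cells/well and incubated overnight at 37 °C. Compound treatment lasted 24 h before luciferase read-out.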
For orientation: In a reporter assay the amount or activity of a reporter protein is the signal.
As a reminder, the IC50 is the concentration that inhibits the measured activity by half. Regarding `C=CCN1CC(=O)N2[C@@H](Cc3ccc(OC(=O)NCCN(C)C)cc3)C(=O)N(Cc3ccc(F)cc3F)C[C@@H]2N1C(=O)NCc1ccccc1` [Compound 173], the midpoint of inhibition, the IC50, lay at 1800 ± 200 nM.

Still in this experiment, the particulars now being: Homo sapiens, SW480, Table 4; Reporter gene assay as described in Example 6; read-out: IC50.
Take `[2H]c1cc(O)cc([2H])c1C[C@H]1C(=O)N(Cc2cccc3ccccc23)C[C@H]2N1C(=O)CN(C)N2C(=O)NCc1ccccc1` [Compound 172]: the half-maximal inhibitory concentration (IC50) was determined as 2900 ± 400 nM. With `C=CCN1CC(=O)N2[C@@H](Cc3ccc(OP(=O)(O)O)cc3)C(=O)N(Cc3ccccc3)C[C@@H]2N1C(=O)NCc1ccccc1` [Compound 174], the IC50 turned out to be 1000 ± 100 nM.

As for `C=CCN1CC(=O)N2[C@@H](Cc3ccc(O)cc3)C(=O)N(Cc3ccc(F)cc3F)C[C@@H]2N1C(=O)NCc1ccc(F)cc1` [Compound 175], the IC50 is 5400 ± 500 nM.

For `CC(C)N1CC(=O)N2[C@@H](Cc3ccc(O)cc3)C(=O)N(Cc3ccc(F)cc3F)C[C@@H]2N1C(=O)NCc1ccccc1` [Compound 176], the IC50 came to 4000 ± 400 nM. Still for that read-out and setting: the same measure for `C=CCN1CC(=O)N2[C@@H](Cc3ccc(O)cc3)C(=O)N(Cc3ccc(F)cc3F)[C@@H](C)[C@@H]2N1C(=O)NCc1ccccc1` [Compound 177]: 5300 ± 400 nM; for `C=CCN1CC(=O)N2[C@@H](Cc3ccc(O)cc3)C(=O)N(Cc3ccc(F)c(F)c3)C[C@@H]2N1C(=O)NCc1ccccc1` [Compound 178]: 1200 ± 100 nM; for `C=CCN1CC(=O)N2[C@@H](Cc3ccc(O)cc3)C(=O)N(Cc3ccc(F)cc3F)C[C@@H]2N1C(=O)NCc1ccc(Cl)c(Cl)c1` [Compound 179]: 2300 ± 200 nM. The same measure, in the same setting: the same measure for `C=CCN1CC(=O)N2[C@@H](Cc3ccc(O)cc3)C(=O)N(Cc3ccc(Cl)c(Cl)c3)C[C@@H]2N1C(=O)NCc1ccccc1` [Compound 180]: 1300 ± 100 nM; for `C=CCN1CC(=O)N2[C@@H](CC3(O)C=CC(=O)C=C3)C(=O)N(Cc3ccc(F)cc3F)C[C@@H]2N1C(=O)NCc1ccccc1` [Compound 181]: 6700 ± 600 nM. On the same count and under the same terms, the figure for `C=CCN1CC(=O)N2[C@@H](Cc3ccc(O)cc3)C(=O)N(Cc3cccc4scnc34)C[C@@H]2N1C(=O)NCc1ccccc1` [Compound 182] is 600 ± 40 nM. As to `C=CCN1CC(=O)N2[C@@H](Cc3ccc(O)cc3)C(=O)N([C@H](C)c3ccccc3)C[C@@H]2N1C(=O)NCc1ccccc1` [Compound 183], the IC50 was 12800 ± 900 nM. On the same count and under the same terms, the same measure for `C=CCN1CC(=O)N2[C@@H](CN([C@H](C)c3ccccc3)C(=O)[C@@H]2Cc2ccc(O)cc2)N1C(=O)NCc1ccccc1` [Compound 184]: 1200 ± 100 nM; for `C=CCN1CC(=O)N2[C@@H](Cc3ccc(O)cc3)C(=O)N([C@@H](C)c3ccc(Cl)c4cccnc34)C[C@@H]2N1C(=O)NCc1ccccc1` [Compound 185]: 23400 ± 1900 nM. The same measure, in the same setting: the same measure for `C=CCN1CC(=O)N2[C@@H](Cc3ccc(O)c(F)c3)C(=O)N(Cc3ccc(F)cc3)C[C@@H]2N1C(=O)NCc1ccccc1` [Compound 186]: 3600 ± 300 nM. The same measure, in the same setting: the figure for `C=CCN1CC(=O)N2[C@@H](Cc3ccc(O)cc3)C(=O)N(Cc3ccc4c(c3)OCCO4)C[C@@H]2N1C(=O)NCc1ccccc1` [Compound 187] is 1100 ± 200 nM; for `C=CCN1CC(=O)N2[C@@H](CN([C@H](C)c3ccc(F)cc3F)C(=O)[C@@H]2Cc2ccc(O)cc2)N1C(=O)NCc1ccccc1` [Compound 188] it is 4400 ± 200 nM. Turning to `C=CCN1CC(=O)N2[C@@H](CN([C@H](C)c3ccc(Cl)c4cccnc34)C(=O)[C@@H]2Cc2ccc(O)cc2)N1C(=O)NCc1ccccc1` [Compound 189], the IC50 is 8700 ± 400 nM. Same read-out and setting: the same measure for `C=CCN1CC(=O)N2[C@@H](Cc3ccc(O)cc3)C(=O)N(Cc3cccc(NC)c3)C[C@@H]2N1C(=O)NCc1ccccc1` [Compound 193]: 2500 ± 500 nM. In the case of `C=CCN1CC(=O)N2[C@@H](Cc3ccc(O)cc3)C(=O)N(Cc3cccc(N(C)C(=O)CCCCC)c3)C[C@@H]2N1C(=O)NCc1ccccc1` [Compound 194], the IC50 is 3200 ± 400 nM. The same measure, in the same setting: the same measure for `C[C@H](c1ccc(F)cc1F)N1CC2N(C(=O)CN(C)N2C(=O)NCc2ccccc2)[C@@H](Cc2ccc(O)cc2)C1=O` (stereo partly drawn) [Compound 195]: 22300 ± 2300 nM; for `C[C@@H](c1ccc(Cl)c2cccnc12)N1CC2N(C(=O)CN(C)N2C(=O)NCc2ccccc2)[C@@H](Cc2ccc(O)cc2)C1=O` (stereo partly drawn) [Compound 196]: 27400 ± 2800 nM. On the same count and under the same terms, the same measure for `C=CCN1CC(=O)N2[C@@H](Cc3ccc(OP(=O)(O)O)cc3)C(=O)N(Cc3cccc4scnc34)C[C@@H]2N1C(=O)NCc1ccccc1` [Compound 197]: 700 ± 200 nM; for `C[C@H](c1ccc(Cl)c2cccnc12)N1CC2N(C(=O)CN(C)N2C(=O)NCc2ccccc2)[C@@H](Cc2ccc(O)cc2)C1=O` (stereo partly drawn) [Compound 198]: 5800 ± 300 nM. Same read-out and setting: the same measure for `C=CCN1CC(=O)N2[C@@H](Cc3ccc(O)cc3)C(=O)N(Cc3cccc4cccnc34)C[C@@H]2N1C(=O)NCc1ccc(Cl)c(Cl)c1` [Compound 199]: 1000 ± 200 nM; for `CN1CC(=O)N2[C@@H](Cc3ccc(O)cc3)C(=O)N(Cc3ccc(F)cc3F)C[C@@H]2N1C(=O)NCc1ccc(F)cc1` [Compound 200]: 8600 ± 400 nM.

In the case of `CN1CC(=O)N2[C@@H](Cc3ccc(O)cc3)C(=O)N(Cc3ccc(F)cc3F)C[C@@H]2N1C(=O)NCc1ccc(Br)cc1` [Compound 201], the IC50 came out at 5800 ± 400 nM. On to `C=CCN1CC(=O)N2[C@@H](Cc3ccc(O)cc3)C(=O)N(Cc3cccc4c3OCO4)C[C@@H]2N1C(=O)NCc1ccccc1` [Compound 202], for which the IC50 is 700 ± 100 nM. As for `C=CCN1CC(=O)N2[C@@H](Cc3ccc(O)cc3)C(=O)N(Cc3cccc4c3OCCO4)C[C@@H]2N1C(=O)NCc1ccccc1` [Compound 203], the IC50 was determined as 700 ± 100 nM. On the same count and under the same terms, the same measure for `C=CCN1CC(=O)N2[C@@H](Cc3ccc(O)cc3)C(=O)N(Cc3cccc4c3OCCO4)C[C@@H]2N1C(=O)NCc1ccc(Cl)c(Cl)c1` [Compound 204]: 1900 ± 100 nM; for `C=CCN1CC(=O)N2[C@@H](Cc3ccc(O)cc3)C(=O)N(Cc3cccc4c3OCC4)C[C@@H]2N1C(=O)NCc1ccccc1` [Compound 205]: 3500 ± 800 nM. As to `C=CCN1CC(=O)N2[C@@H](Cc3ccc(O)cc3)C(=O)N(Cc3cccc(OC(F)(F)F)c3)C[C@@H]2N1C(=O)NCc1ccccc1` [Compound 206], the IC50 is 1300 ± 100 nM. On the same count and under the same terms, the same measure for `C=CCN1CC(=O)N2[C@@H](Cc3ccc(O)cc3)C(=O)N(Cc3ccccc3)C[C@@H]2N1C(=O)NCc1ccc(Cl)c(Cl)c1` [Compound 207]: 1500 ± 100 nM; for `C=CCN1CC(=O)N2[C@@H](Cc3ccc(O)cc3)C(=O)N(Cc3ccc(OC)cc3)C[C@@H]2N1C(=O)NCc1ccccc1` [Compound 208]: 1600 ± 400 nM. Regarding `C=CCN1CC(=O)N2[C@@H](Cc3ccc(OP(=O)(O)O)cc3)C(=O)N(Cc3ccc(OC)cc3)C[C@@H]2N1C(=O)NCc1ccccc1` [Compound 209], the IC50 came out at 1900 ± 500 nM. Consider `C=CCN1CC(=O)N2[C@@H](Cc3ccc(O)cc3)C(=O)N(Cc3cccc4scnc34)C[C@@H]2N1C(=O)NCc1ccc(Cl)c(Cl)c1` [Compound 210], for which the IC50 is 900 ± 100 nM.

Regarding `C=CCN1CCN2[C@@H](Cc3ccc(O)cc3)C(=O)N(Cc3ccc(OC(F)(F)F)cc3)C[C@@H]2N1C(=O)NCc1ccccc1` [Compound 211], the IC50 came out at 2300 ± 200 nM. The same measure, in the same setting: the same measure for `C=CCN1CC(=O)N2[C@@H](Cc3ccc(OP(=O)(O)O)cc3)C(=O)N(Cc3ccc4c(c3)OCCO4)C[C@@H]2N1C(=O)NCc1ccccc1` [Compound 212]: 1300 ± 300 nM; for `C=CCN1CCN2[C@@H](Cc3ccc(O)cc3)C(=O)N(Cc3ccc(OC)cc3OC)C[C@@H]2N1C(=O)NCc1ccccc1` [Compound 213]: 1700 ± 300 nM; for `C=CCN1CC(=O)N2[C@@H](Cc3ccc(O)cc3)C(=O)N(Cc3cccc(OC)c3OC)C[C@@H]2N1C(=O)NCc1ccccc1` [Compound 214]: 600 ± 200 nM. On the same count and under the same terms, the same measure for `C=CCN1CC(=O)N2[C@@H](Cc3ccc(O)cc3)C(=O)N(Cc3ccc(OC)cc3)C[C@@H]2N1C(=O)NCc1ccc(Cl)c(Cl)c1` [Compound 215]: 18000 ± 5100 nM; for `C=CCN1CC(=O)N2[C@@H](Cc3ccc(O)c(F)c3)C(=O)N(Cc3cccc4scnc34)C[C@@H]2N1C(=O)NCc1ccccc1` [Compound 216]: 1600 ± 200 nM. Same read-out and setting: the same measure for `C=CCN1CC(=O)N2[C@@H](Cc3ccc(O)cc3)C(=O)N(Cc3cccc4sc(Cl)nc34)C[C@@H]2N1C(=O)NCc1ccccc1` [Compound 217]: less than 1600 nM. Regarding `C=CCN1CC(=O)N2[C@@H](Cc3ccc(O)cc3)C(=O)N(Cc3cccc4sc(N5CCCCC5)nc34)C[C@@H]2N1C(=O)NCc1ccccc1` [Compound 218], the IC50 came out at 1600 ± 1200 nM. As for `C=CCN1CC(=O)N2[C@@H](Cc3ccc(O)cc3)C(=O)N(Cc3cccc4sc(N5CCOCC5)nc34)C[C@@H]2N1C(=O)NCc1ccccc1` [Compound 219], the IC50 is 2200 ± 700 nM. Same read-out and setting: the same measure for `C=CCc1nc2c(CN3C[C@H]4N(C(=O)CN(CC=C)N4C(=O)NCc4ccccc4)[C@@H](Cc4ccc(O)cc4)C3=O)cccc2s1` [Compound 220]: 1100 ± 300 nM. As to `C=CCN1CC(=O)N2[C@@H](Cc3ccc(O)cc3)C(=O)N(Cc3cccc4sc(-c5ccccc5)nc34)C[C@@H]2N1C(=O)NCc1ccccc1` [Compound 221], the IC50 came to 4700 ± 3500 nM. The same measure, in the same setting: the figure for `C=CCN1CC(=O)N2[C@@H](Cc3ccc(O)cc3)C(=O)N(Cc3ccc(Cl)c4scnc34)C[C@@H]2N1C(=O)NCc1ccccc1` [Compound 222] is 3800 ± 2700 nM. On the same count and under the same terms, the same measure for `C=CCN1CC(=O)N2[C@@H](Cc3ccc(O)cc3)C(=O)N(Cc3ccc(F)c4scnc34)C[C@@H]2N1C(=O)NCc1ccccc1` [Compound 223]: 600 ± 100 nM; for `C=CCN1CC(=O)N2[C@@H](Cc3ccc(O)cc3)C(=O)N(Cc3cccc4sc(C(=O)OCC)nc34)C[C@@H]2N1C(=O)NCc1ccccc1` [Compound 224]: 5400 ± 1000 nM; for `C=CCN1CC(=O)N2[C@@H](Cc3ccc(O)cc3)C(=O)N(Cc3cccc4sc(N)nc34)C[C@@H]2N1C(=O)NCc1ccccc1` [Compound 225]: 100 ± 100 nM.

The values above are taken from patent US7671054B1, “Reverse-turn mimetics and method relating thereto” (Choongwae Pharma Corporation, priority 2001, dated 2010).
